{
  "source": "patent US8476317B2",
  "about": "“N-alkylcarbonyl-amino acid ester compounds and their use for cough and pharyngitis” (priority 2011, dated 2013)",
  "format_in_all_cases": "in vivo, human",
  "key": {"[1]": {"test_system": "ocular surface", "test": "Eye wipe test, duration of cooling on ocular surface", "settings": "eye wipes 1 mg/ml in 5%-95% v/v ethanol-distilled water", "method": "To further document the activities fo the test molecules, the results from an eye wipe test was included. Here the test substance is applied to the closed eyelids with a towelette at a concentration of 1 mg/ml in 5%-ethanol-95%-distilled water vol/vol and the duration of cooling on the ocular surface was recorded. […] It is likely that the mucous membranes that line the ocular surface and the pharynx have similar sensory mechanisms that are somewhat different from the philtrum skin which is keratinized."}, "[2]": {"test_system": "pharyngeal surface", "test": "Chili-pepper sauce cough challenge test", "set-up": "key: If there is no attenuation of the challenge stimuli, the score is 0; if there is partial inhibition, the score is +; if there is complete attenuation of the cough signal, the score is ++", "settings": "challenge 45 to 50 min after ODT containing 2 mg of test substance", "excerpt": "A number of cough challenge methods have been devised for evoking the cough reflex (Morice et al. Briti. J. Clin. Pharmacol. 52: 365-375, 2001). Usually, citric acid or capsaicin is delivered via the inhalation route to volunteers and the number of coughs counted. […] The chili pepper sauce used here is called Yank Sing® Chili Pepper Sauce (YS Gourmet Productions, Inc., PO Box 26189, San Francisco, Calif. 94126) and is a well-known condiment for use with dim sum (Chinese tea lunch). The sensations associated with the chili pepper sauce are located in the back of the mouth and are clearly recognized and associated with a desire to clear the throat. […] To test for anti-cough activity the ODT with the test substance is first administered onto the dorsal surface of the tongue and 45 to 50 min afterwards the chili-pepper sauce test is administered. If there is no attenuation of the challenge stimuli, the score is 0, if there is partial inhibition, the score is +, and if there is complete attenuation of the cough signal, the score is ++. In the presence of an ODT that results in a ++ score, the irritative signals are completely absent, yet the salty taste used in the soy sauce of the condiment can still be easily tasted. The test substances in the ODT that produced a ++ score were then identified and further tested for effectiveness in the treatment of cough."}, "[3]": {"test_system": "philtrum skin", "test": "Cooling on facial (philtrum) skin, ointment", "settings": "for skin or eye irritancy: in vivo; for Philtrum Skin (min), duration of cooling: 5 mg/ml in Aquaphor ointment", "excerpt": "A reliable place for topical application is the skin above the upper lip (above the vermilion border of the lips), on the philtrum, lateral to the philtrum until the nasolabial folds, and on the lower nostrils (subnasale). This part of the face is known to be densely innervated with cold receptors, second only to the surfaces of the eyeball and anogenitalia. At this locus, tingling, cool and cold sensations in the skin may be experienced and rated for time of onset and intensity.\nThe intervals for recording sensations are 5 to 10 minutes, until two successive zeroes are obtained. The results (shown in FIG. 1) are averaged values of 4 to 6 separate trials in the same individual. The data are plotted using SigmaPlot® (Systat Software, Point Richmond Calif.) and a smoothing function with a negative exponential was used for analysis and statistical fit of the results. Confirmatory trials of cooling action of the long-acting NACE compounds were obtained in 2 to 4 individuals but not quantified for some because of the large number of chemicals that were evaluated.\n(§1) The onset of drug action is taken as the time to reach 2 units of coolness intensity, and offset of drug action is the time when coolness intensity drops below 2, after previously surpassing 2 units. The duration of cooling action is defined as the offset time minus the onset time. […] The quality of the sensation is noted, for example, as pure refreshing coolness, or if the sensation is accompanied by irritation (stinging or burning). The quality of the sensation is not rated for intensity.\nFor bioassay on the skin, approximately 30 mg was stirred and dissolved in 3 g of warm liquid Aquaphor® ointment to a yield a 40 mM (˜1% wt/vol) ointment. The exact amount was adjusted so that the molar equivalent was about 35 to 40 mM. After cooling, 40 to 70 mg of the solid ointment was placed on the tip of a plastic stick and applied to the skin above the upper lip, on the philtrum, and lateral to the philtrum, up to the nasolabial folds, of test subjects and the onset and duration of cooling sensations noted.\nThe intervals for recording sensations were 5 to 10 minutes, until two successive zeroes were obtained. The results (shown in FIG. 1) are averaged values of 4 to 6 separate trials in the same individual. The data are plotted using SigmaPlot® (Systat Software, Point Richmond, Calif., USA) and a smoothing function with a negative exponential was used for analysis and statistical fit of the results.\nas §1, with “was” for “is”, “was also noted: such” for “is noted, for example,”\nIn the results of FIG. 1, the test compounds were singly applied to the skin above the upper lips as a ˜1% wt/vol (10 mg/ml) ointment. Subsequently, for the results shown in Table 3, the test dose on the philtrum was reduced to a 0.5% wt/vol (5 mg/ml) ointment. The reason for choosing a lower dose was to increase the number of trials per individual and to have a reduced chance of substances accumulating in the skin."}},
  "data": [
    {"smiles": "CCOC(=O)[C@@H](C)NC(=O)[C@@H]1C[C@H](C)CC[C@H]1C(C)C", "note": "[D-Ala-OEt, (R)-2-[((1R,2S,5R)-2-isopropyl-5-methyl-cyclohexanecarbonyl)-amino]-propionic acid ethyl ester]", "values": [
      {"measurement": "Eyelids/Ocular Surface (min), duration of cooling", "setting": "[1]", "value": 180, "unit": "min"},
      {"measurement": "Chili-Pepper Sauce Test", "setting": "[2]", "value": "++"},
      {"measurement": "skin or eye irritancy", "setting": "[3]", "value": "without skin or eye irritancy"}
    ]},
    {"smiles": "COC(=O)[C@@H](C)NC(=O)[C@@H]1C[C@H](C)CC[C@H]1C(C)C", "note": "[D-Ala-OMe, (R)-2-[((1R,2S,5R)-2-isopropyl-5-methyl-cyclohexanecarbonyl)-amino]-propionic acid methyl ester]", "values": [
      {"measurement": "Eyelids/Ocular Surface (min), duration of cooling", "setting": "[1]", "value": 120, "unit": "min"},
      {"measurement": "Chili-Pepper Sauce Test", "setting": "[2]", "value": "++"},
      {"measurement": "Philtrum Skin (min), duration of cooling", "setting": "[3]", "value": 77, "unit": "min"},
      {"measurement": "skin or eye irritancy", "setting": "[3]", "value": "without skin or eye irritancy"}
    ]},
    {"smiles": "CCOC(=O)C(C)NC(=O)[C@@H]1C[C@H](C)CC[C@H]1C(C)C", "note": "(stereo partly drawn) [L-Ala-OEt]", "values": [
      {"measurement": "Eyelids/Ocular Surface (min), duration of cooling", "setting": "[1]", "value": 0, "unit": "min"},
      {"measurement": "Chili-Pepper Sauce Test", "setting": "[2]", "value": 0},
      {"measurement": "Philtrum Skin (min), duration of cooling", "setting": "[3]", "value": 34, "unit": "min"}
    ]}
  ]
}
